Measured values from US20240270762A1, “PENICILLIN-BINDING PROTEIN INHIBITORS” (priority 2021, published 2024).
Converted amounts (≈) assume the structure as drawn.

How the values were obtained:
Experiment in all cases: microbe, parasite or virus in culture
Format in all cases: cell-based
K. pneumoniae SI-117 = settings: Klebsiella pneumoniae, SI117, read-out: MIC K. pneumoniae SI-117
K. pneumoniae UMM = settings: Klebsiella pneumoniae, read-out: MIC K. pneumoniae UMM
P. aeruginosa ATCC 35151 = settings: Pseudomonas aeruginosa, ATCC35151, read-out: MIC P. aeruginosa ATCC 35151
A. baumannii CDC-0083 = settings: Acinetobacter baumannii, CDC0083, read-out: MIC, A. baumannii CDC-0083
E. coli 901C = settings: Escherichia coli, read-out: MIC E. coli 901C
E. coli ATCC 25922 = settings: Escherichia coli, ATCC25922, read-out: MIC E. coli 25922
A. baumannii ATCC 19606 = settings: Acinetobacter baumannii, ATCC19606, read-out: MIC, A. baumannii ATCC 19606

SMILES	MIC (K. pneumoniae SI-117) [µg/mL]	MIC (K. pneumoniae UMM) [µg/mL]	MIC (P. aeruginosa ATCC 35151) [µg/mL]	MIC (A. baumannii CDC-0083) [µg/mL]	MIC (E. coli 901C) [µg/mL]	MIC (E. coli ATCC 25922) [µg/mL]	MIC (A. baumannii ATCC 19606) [µg/mL]
O=C(O)c1c(F)ccc2c1OB(O)[C@@H](NC(=O)[C@H](NC(=O)N1CCN(Cc3ccc(O)c(O)c3Cl)C(=O)C1=O)c1ccc(P(=O)(O)O)cc1)C2 (single isomer, unassigned) [Example 160]	8 to 16 (≈ 10.9 to 21.8 µM)	2 to 4 (≈ 2.72 to 5.44 µM)	< 1	< 1	< 1	2 to 4 (≈ 2.72 to 5.44 µM)	< 1
O=C(O)c1c(F)ccc2c1OB(O)[C@@H](NC(=O)C(NC(=O)N1CCN(S(=O)(=O)c3ccc(O)c(O)c3Cl)C1=O)c1ccc(P(=O)(O)O)cc1)C2 (stereo partly drawn) [Example 505, (3R)-3-(2-(3-((2-chloro-3,4-dihydroxyphenyl)sulfonyl)-2-oxoimidazolidine-1-carboxamido)-2-(4-phosphonophenyl)acetamido)-7-fluoro-2-hydroxy-3,4-dihydro-2H-benzo[e][1,2]oxaborinine-8-carboxylic acid]	< 1	< 1	< 1	–	< 1	< 1	< 1
O=C(O)c1c(F)ccc2c1OB(O)[C@@H](NC(=O)[C@H](NC(=O)N1CCN(S(=O)(=O)c3ccc(O)c(O)c3Cl)C1=O)c1ccc(P(=O)(O)O)cc1)C2 [Example 506, (R)-3-((R)-2-(3-((2-chloro-3,4-dihydroxyphenyl)sulfonyl)-2-oxoimidazolidine-1-carboxamido)-2-(4-phosphonophenyl)acetamido)-7-fluoro-2-hydroxy-3,4-dihydro-2H-benzo[e][1,2]oxaborinine-8-carboxylic acid]	< 1	< 1	< 1	–	< 1	< 1	< 1
O=C(O)c1cccc2c1OB(O)[C@@H](NC(=O)[C@H](NC(=O)N1CCN(Cc3cc(F)c(O)c(O)c3Cl)C(=O)C1=O)c1ccc(P(=O)(O)O)cc1)C2 [Example 504, (R)-3-((R)-2-(4-(2-chloro-5-fluoro-3,4-dihydroxybenzyl)-2,3-dioxopiperazine-1-carboxamido)-2-(4-phosphonophenyl)acetamido)-2-hydroxy-3,4-dihydro-2H-benzo[e][1,2]oxaborinine-8-carboxylic acid]	2 to 4 (≈ 2.72 to 5.44 µM)	2 to 4 (≈ 2.72 to 5.44 µM)	< 1	–	< 1	< 1	< 1
O=C(O)c1cccc2c1OB(O)[C@@H](NC(=O)[C@H](NC(=O)N1CCN(S(=O)(=O)c3ccc(O)c(O)c3Cl)C1=O)c1ccc(P(=O)(O)O)cc1)C2 [Example 509, (R)-3-((R)-2-(3-((2-chloro-3,4-dihydroxyphenyl)sulfonyl)-2-oxoimidazolidine-1-carboxamido)-2-(4-phosphonophenyl)acetamido)-2-hydroxy-3,4-dihydro-2H-benzo[e][1,2]oxaborinine-8-carboxylic acid]	< 1	< 1	< 1	–	< 1	< 1	< 1
